Columns and labels:
Format in all cases: cell-based, Human
[1] = test system: A375 melanoma cells (BRAFV600E mutant); experiment: Cell viability (Cell Titer-Glo) in A375 melanoma cells, single agents and matrix combination; conditions: for concentration that killed 100% of the cells / cells killed: 72 hr; for concentration that killed 100% of the cells: FIG. 2; for cells killed: FIG. 3; for IC50: Homo sapiens, A-375, 72 hr, FIG. 2, read-out: concentration that killed 50% of the cells
Procedure: (§1) Human H1666 NSCLC (BRAFG466V mutant) and A375 melanoma cells (BRAFV600E mutant) were purchased from the American Type Culture Collection (Manassas, Va.) and grown in RPMI or DMEM, respectively, in the presence of fetal bovine serum (10%), 2 mM L-glutamine and antibiotics (100 IU/ml penicillin and 100 μg/ml streptomycin) purchased from Sigma Aldrich. Cells were maintained at 37° C., 5% CO2 atmosphere.
(§2) Cell viability was measured using the Cell Titer-Glo assay (Promega). In brief, cells were plated in 96-well plates in triplicate at optimal seeding density (determined empirically for each cell line) and incubated at 37° C., 5% CO2 atmosphere for 24 hr prior to the addition of drug or vehicle (0.3% DMSO) to the culture medium. At the end of the assay, Cell Titer-Glow was added to the wells per manufactures recommendation, shaken for two minutes and incubated for 10 minutes at room temperature. Luminescence (0.1 sec) was measured with a Victor II microplate reader (Perkin Elmer) and the resulting data were used to calculate cell viability, normalized to vehicle control.
Matrix style combinations between AZD6244 and Ganetespib were performed in A375 melanoma cells. Cells were exposed to AZD6244, ganetespib or the combination of the two concurrently for 72 hr and viability was assessed.
Combination Index (CI) was then determined using the median effect analysis software CalcuSyn 2.0 (CalcuSyn, Inc.). A Combination Index greater than one, equal to one or less than one indicates antagonism, additivity and synergism, respectively.

ERK = experiment: Western blotting of MAPK pathway analytes in A375 cells treated for 24 hr; conditions: A375 melanoma cells with constitutively activated MAPK, FIG. 1
Procedure: as §1
Cells, treated with compound for 24 hr, were lysed in RIPA buffer (CST, Danvers, Mass., USA) on ice and clarified by centrifugation. Equal amounts of proteins were resolved by SDS-PAGE and immunoblotted with indicated antibodies. The antigen-antibody complex was visualized and quantitated using an Odyssey system (LI-COR, Lincoln, Nebr., USA).
The mitogen-activated protein kinase (MAPK) signal transduction cascade is dysregulated in a majority of human tumors.

[2] = test system: H1666 NSCLC (BRAFG466V mutant); experiment: Cell viability (Cell Titer-Glo) in H1666 NSCLC cells, single agents and combination; conditions: FIG. 5
Procedure: as §1, §2
The combination of ganetespib and AZD6244 was performed in the NSCLC cell line H1666. Similar to A375 cells, the combination of both compounds yielded greater anticancer activity than monotherapy. […]

Compound | concentration that killed 100% of the cells [1] | cells killed ([1]; ganetespib 30 nM alone) | IC50 [1] | disruption of activation of the MEK substrate ERK / abrogation of ERK activity (western blot) (ERK) | cells killed ([2]; ganetespib 68 nM alone) | cells killed ([1]; AZD6244 24 nM alone) | cells killed ([2]; AZD6244 118 nM alone)
CC(C)c1cc(-c2nnc(O)n2-c2ccc3c(ccn3C)c2)c(O)cc1O [ganetespib, 3-(2,4-dihydroxy-5-isopropyl-phenyl)-4-(1-methyl-indol-5-yl)-5-hydroxy-[1,2,4] triazole] | 35 nM | 20% | 15 nM | highly effective | approximately 50% | – | –
Cn1cnc2c(F)c(Nc3ccc(Br)cc3Cl)c(C(=O)NOCCO)cc21 [AZD6244, 6-(4-bromo-2-chloro-phenylamino)-7-fluoro-3-methyl-3H-benzoimidazole-5-carboxylic acid (2-hydroxy-ethoxy)-amide] | 228 nM | – | 65 nM | highly effective | – | 10% | approximately 50%

Reference: US20140228418A1, “COMBINATION THERAPY OF HSP90 INHIBITORY COMPOUNDS WITH MEK INHIBITORS” (Synta Pharmaceuticals Corp., priority 2011, published 2014)
